# How the values were obtained:
# Assay in all cases: relative viability (nuclei count vs DMSO), 5 days (fraction); higher = more cells survive
# [1] = compound: CC1=CC(=CC=C1)NC2=NC(=CS2)C3=CC=NC=C3 + N=C(N)NC(=N)NCCc1ccccc1 [Phenformin] (partner 250 µM)
# Outline: (§1)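 Lung cancer cell lines were seeded in 1536-well plates and dosed by pin tool the next day, with either a single drug or a fixed anchor-drug dose combined with five library-drug doses (not always all listed) spaced in √10 steps. Five days later, one step fixed the cells and stained their nuclei (final 0.05% Triton X-100, 1% formaldehyde, 1 ug/ml Hoechst), and nuclei were counted on 4× images. Relative viability is the nuclei count in treated wells divided by the count in vehicle wells, and each value is the median of duplicate plates.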
# Masitinib + Trametinib = compound: Cc1ccc(NC(=O)c2ccc(CN3CCN(C)CC3)cc2)cc1Nc1nc(-c2cccnc2)cs1 [Masitinib] + CC(=O)Nc1cccc(-n2c(=O)n(C3CC3)c(=O)c3c(Nc4ccc(I)cc4F)n(C)c(=O)c(C)c32)c1 [Trametinib] (partner 0.02 µM)
# Outline: as §1
# Masitinib + Pictilisib = compound: Cc1ccc(NC(=O)c2ccc(CN3CCN(C)CC3)cc2)cc1Nc1nc(-c2cccnc2)cs1 [Masitinib] + CS(=O)(=O)N1CCN(Cc2cc3nc(-c4cccc5[nH]ncc45)nc(N4CCOCC4)c3s2)CC1 [Pictilisib] (partner 1 µM)
# Outline: as §1
# Masitinib + Vorinostat = compound: Cc1ccc(NC(=O)c2ccc(CN3CCN(C)CC3)cc2)cc1Nc1nc(-c2cccnc2)cs1 [Masitinib] + O=C(CCCCCCC(=O)Nc1ccccc1)NO [Vorinostat] (partner 1 µM)
# Outline: as §1
Cell Line,relative viability ([1]; first compound 0.08 µM),relative viability ([1]; first compound 0.253 µM),relative viability ([1]; first compound 0.8 µM),relative viability ([1]; first compound 2.53 µM),relative viability ([1]; first compound 8 µM),relative viability (Masitinib + Trametinib; first compound 0.01 µM),relative viability (Masitinib + Trametinib; first compound 0.03162 µM),relative viability (Masitinib + Trametinib; first compound 0.1 µM),relative viability (Masitinib + Trametinib; first compound 0.3162 µM),relative viability (Masitinib + Trametinib; first compound 1 µM),relative viability (Masitinib + Pictilisib; first compound 0.01 µM),relative viability (Masitinib + Pictilisib; first compound 0.03162 µM),relative viability (Masitinib + Pictilisib; first compound 0.1 µM),relative viability (Masitinib + Pictilisib; first compound 0.3162 µM),relative viability (Masitinib + Pictilisib; first compound 1 µM),relative viability (Masitinib + Vorinostat; first compound 0.01 µM),relative viability (Masitinib + Vorinostat; first compound 0.03162 µM),relative viability (Masitinib + Vorinostat; first compound 0.1 µM),relative viability (Masitinib + Vorinostat; first compound 0.3162 µM),relative viability (Masitinib + Vorinostat; first compound 1 µM)
NCI-H322M,0.63,0.726,0.788,0.854,0.797,0.576,0.465,0.519,0.637,0.566,0.545,0.463,0.481,0.503,0.483,0.831,0.821,0.881,0.91,0.882
NCI-H358,0.371,0.35,0.353,0.402,0.387,0.148,0.13,0.135,0.121,0.122,0.328,0.319,0.34,0.394,0.296,0.72,0.658,0.773,0.641,0.616
NCI-H441,0.8,0.782,0.892,0.823,0.78,0.5,0.488,0.547,0.336,0.397,0.654,0.449,0.601,0.482,0.446,0.856,0.75,1.12,1.01,0.894
NCI-H460,0.478,0.499,0.511,0.479,0.438,0.13,0.121,0.139,0.13,0.13,0.587,0.26,0.415,0.254,0.321,0.766,0.418,0.841,0.647,0.758
NCI-H520,0.514,0.538,0.651,0.308,0.559,0.752,0.634,0.873,0.76,0.598,0.336,–,0.366,0.313,0.271,0.796,0.703,0.755,0.932,0.687
NCI-H596,0.727,0.789,0.733,0.68,0.669,0.723,0.691,0.789,0.678,0.732,0.214,0.345,0.438,0.385,0.35,0.702,0.546,0.545,0.533,0.588
NCI-H647,0.413,0.489,0.5,0.534,0.515,0.45,0.381,0.435,0.364,0.411,0.424,0.356,0.44,0.333,0.321,0.503,0.533,0.592,0.693,0.619
NCI-H650,0.426,0.407,0.476,0.372,0.502,1.05,1.1,1.03,1.28,0.99,0.921,0.909,1.09,0.864,0.929,0.458,0.527,0.415,0.484,0.404

# — the supplement of paper PMC10307832
